Source: ChEMBL document CHEMBL1681689, “Discovery of N-methyl-1-(1-phenylcyclohexyl)ethanamine, a novel triple serotonin, norepinephrine and dopamine reuptake inhibitor” (Bioorg Med Chem Lett, 2011)
Active and inactive are the calls of the source. No cut-off for these calls is given here.

System: Mus musculus
Assay: Antidepressant activity in mouse assessed as reduction of immobility duration measured at first 5 mins time point at 10 or 30 mg/kg, po by tail suspension test
Type: functional, organism-based
Set-up: dose 30 mg/kg
Conditions: not given

Compound	Activity
CC(N(C)C)C1(c2ccc3ccccc3c2)CCCCC1 (single isomer, unassigned; form 2)	inactive
CC(N(C)C)C1(c2ccc(Cl)c(Cl)c2)CCCCC1 (stereo not given)	inactive
CNC(C)C1(c2ccc(Cl)c(Cl)c2)CCCCC1 (single isomer, unassigned; enantiomer 2)	inactive

Target: Cytochrome P450 2D6 (Homo sapiens, UniProt P10635)
Assay: Inhibition of CYP2D6
Type: ADME
Conditions: not given

Chain of Cytochrome P450 2D6 (P10635 whole entry): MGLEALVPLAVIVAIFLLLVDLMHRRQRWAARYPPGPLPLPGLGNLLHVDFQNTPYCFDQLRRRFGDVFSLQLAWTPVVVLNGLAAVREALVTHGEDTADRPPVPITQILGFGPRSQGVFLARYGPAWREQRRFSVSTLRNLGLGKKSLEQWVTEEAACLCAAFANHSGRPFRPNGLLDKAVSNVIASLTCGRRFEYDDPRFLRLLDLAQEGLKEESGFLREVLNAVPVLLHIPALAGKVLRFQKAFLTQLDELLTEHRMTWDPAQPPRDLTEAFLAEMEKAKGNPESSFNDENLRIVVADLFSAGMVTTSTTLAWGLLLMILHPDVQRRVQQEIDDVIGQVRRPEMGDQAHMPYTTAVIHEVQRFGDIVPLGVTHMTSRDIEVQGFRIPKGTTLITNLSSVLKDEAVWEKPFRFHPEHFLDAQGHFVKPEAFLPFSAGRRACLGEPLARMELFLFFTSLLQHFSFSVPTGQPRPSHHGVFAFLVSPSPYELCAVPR

Compound	IC50
CC(N(C)C)C1(c2ccc3ccccc3c2)CCCCC1.Cl (single isomer, unassigned; form 2)	> 5 µM
CC(N(C)C)C1(c2ccc(Cl)c(Cl)c2)CCCCC1.Cl (stereo not given)	> 25 µM
CNC(C)C1(c2ccc(Cl)c(Cl)c2)CCCCC1.Cl (single isomer, unassigned; enantiomer 2)	8.5 µM

System: Mus musculus
Assay: Antidepressant activity in po dosed mouse assessed as reduction of immobility duration measured by tail suspension test
Type: functional, organism-based
Conditions: not given

Compound	Activity
CC(N(C)C)C1(c2ccc3ccccc3c2)CCCCC1 (single isomer, unassigned; form 2)	Dose-dependent effect
CC(N(C)C)C1(c2ccc(Cl)c(Cl)c2)CCCCC1 (stereo not given)	Dose-dependent effect
CNC(C)C1(c2ccc(Cl)c(Cl)c2)CCCCC1 (single isomer, unassigned; enantiomer 2)	Dose-dependent effect

Target: Cytochrome P450 2C19 (Homo sapiens, UniProt P33261)
Assay: Inhibition of CYP2C19
Type: ADME
Conditions: not given

Chain of Cytochrome P450 2C19 (P33261 whole entry): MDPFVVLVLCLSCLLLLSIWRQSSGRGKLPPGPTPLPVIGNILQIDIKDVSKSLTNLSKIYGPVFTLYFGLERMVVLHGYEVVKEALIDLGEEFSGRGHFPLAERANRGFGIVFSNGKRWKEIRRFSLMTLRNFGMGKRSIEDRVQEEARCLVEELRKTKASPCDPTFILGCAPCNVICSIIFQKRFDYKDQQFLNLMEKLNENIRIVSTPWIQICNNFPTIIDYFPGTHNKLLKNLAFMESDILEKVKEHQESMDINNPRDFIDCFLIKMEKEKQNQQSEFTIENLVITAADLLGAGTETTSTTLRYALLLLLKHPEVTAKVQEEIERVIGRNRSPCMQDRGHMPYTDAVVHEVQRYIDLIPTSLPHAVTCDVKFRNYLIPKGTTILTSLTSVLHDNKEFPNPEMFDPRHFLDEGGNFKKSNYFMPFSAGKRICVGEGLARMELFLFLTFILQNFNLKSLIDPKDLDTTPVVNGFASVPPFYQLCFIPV

Compound	IC50
CC(N(C)C)C1(c2ccc3ccccc3c2)CCCCC1.Cl (single isomer, unassigned; form 2)	> 5 µM
CC(N(C)C)C1(c2ccc(Cl)c(Cl)c2)CCCCC1.Cl (stereo not given)	> 25 µM

System: Plasma
Assay: Drug level in mouse plasma at 30 mg/kg, po
Type: functional, organism-based
Set-up: dose 30 mg/kg
Conditions: not given

Compound	Cp
CC(N(C)C)C1(c2ccc3ccccc3c2)CCCCC1 (single isomer, unassigned; form 2)	68 ng/mL
CC(N(C)C)C1(c2ccc(Cl)c(Cl)c2)CCCCC1 (stereo not given)	103 ng/mL
CNC(C)C1(c2ccc(Cl)c(Cl)c2)CCCCC1 (single isomer, unassigned; enantiomer 2)	544 ng/mL

Target: Voltage-gated inwardly rectifying potassium channel KCNH2 (Homo sapiens, UniProt Q12809)
Conditions: not given

Chain of Voltage-gated inwardly rectifying potassium channel KCNH2 (Q12809 whole entry): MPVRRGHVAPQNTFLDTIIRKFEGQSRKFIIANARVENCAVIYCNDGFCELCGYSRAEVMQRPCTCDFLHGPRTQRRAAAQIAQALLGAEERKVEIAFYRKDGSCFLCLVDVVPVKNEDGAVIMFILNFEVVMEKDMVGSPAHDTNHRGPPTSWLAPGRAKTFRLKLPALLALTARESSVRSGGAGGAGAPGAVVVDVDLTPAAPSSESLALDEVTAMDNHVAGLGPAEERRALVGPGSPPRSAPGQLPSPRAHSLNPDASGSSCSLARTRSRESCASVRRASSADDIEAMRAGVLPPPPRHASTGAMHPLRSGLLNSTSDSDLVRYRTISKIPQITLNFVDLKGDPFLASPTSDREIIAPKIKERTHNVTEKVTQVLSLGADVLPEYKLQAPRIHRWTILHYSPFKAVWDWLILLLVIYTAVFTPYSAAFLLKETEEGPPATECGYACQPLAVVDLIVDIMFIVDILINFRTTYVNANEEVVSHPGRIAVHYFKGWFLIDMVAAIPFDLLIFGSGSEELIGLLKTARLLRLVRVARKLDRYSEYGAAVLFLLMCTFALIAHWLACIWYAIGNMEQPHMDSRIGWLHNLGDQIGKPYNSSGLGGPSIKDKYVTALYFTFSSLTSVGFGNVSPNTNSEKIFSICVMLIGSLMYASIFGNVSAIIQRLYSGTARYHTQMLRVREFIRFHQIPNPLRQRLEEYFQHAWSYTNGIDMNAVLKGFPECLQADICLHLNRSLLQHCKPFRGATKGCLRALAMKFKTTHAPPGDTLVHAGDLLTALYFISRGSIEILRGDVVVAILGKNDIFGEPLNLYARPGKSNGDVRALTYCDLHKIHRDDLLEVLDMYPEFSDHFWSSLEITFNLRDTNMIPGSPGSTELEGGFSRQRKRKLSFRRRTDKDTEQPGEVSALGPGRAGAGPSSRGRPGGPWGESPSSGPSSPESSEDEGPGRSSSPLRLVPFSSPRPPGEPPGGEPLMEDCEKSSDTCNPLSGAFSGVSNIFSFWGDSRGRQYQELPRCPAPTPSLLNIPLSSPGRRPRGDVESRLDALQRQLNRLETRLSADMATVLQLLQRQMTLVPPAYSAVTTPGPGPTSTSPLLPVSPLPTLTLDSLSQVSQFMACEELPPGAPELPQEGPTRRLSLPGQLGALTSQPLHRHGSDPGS

Compound	IC50
CC(N(C)C)C1(c2ccc3ccccc3c2)CCCCC1.Cl (single isomer, unassigned; form 2)	4.3 µM
CC(N(C)C)C1(c2ccc(Cl)c(Cl)c2)CCCCC1.Cl (stereo not given)	40 µM

Target: Cytochrome P450 3A4 (Homo sapiens, UniProt P08684)
Assay: Inhibition of CYP3A4
Type: ADME
Conditions: not given

Chain of Cytochrome P450 3A4 (P08684 whole entry): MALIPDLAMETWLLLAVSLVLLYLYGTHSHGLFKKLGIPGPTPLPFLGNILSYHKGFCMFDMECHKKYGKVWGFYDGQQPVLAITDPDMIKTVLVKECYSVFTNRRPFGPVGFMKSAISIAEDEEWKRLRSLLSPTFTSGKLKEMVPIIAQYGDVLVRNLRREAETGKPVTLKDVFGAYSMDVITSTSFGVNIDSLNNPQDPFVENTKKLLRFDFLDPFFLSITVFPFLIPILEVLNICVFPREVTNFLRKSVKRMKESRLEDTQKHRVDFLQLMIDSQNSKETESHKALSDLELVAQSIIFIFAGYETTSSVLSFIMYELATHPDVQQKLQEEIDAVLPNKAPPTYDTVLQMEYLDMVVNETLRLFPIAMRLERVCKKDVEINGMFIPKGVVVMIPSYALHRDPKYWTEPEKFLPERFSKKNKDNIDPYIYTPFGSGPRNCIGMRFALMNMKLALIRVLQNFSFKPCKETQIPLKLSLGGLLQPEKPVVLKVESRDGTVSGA

Compound	IC50
CC(N(C)C)C1(c2ccc3ccccc3c2)CCCCC1.Cl (single isomer, unassigned; form 2)	> 5 µM
CC(N(C)C)C1(c2ccc(Cl)c(Cl)c2)CCCCC1.Cl (stereo not given)	> 25 µM

System: Mus musculus
Assay: Antidepressant activity in mouse assessed as reduction in immobility duration pretreated 30 mins before at 10 mg/kg, po by tail suspension test
Type: functional
Set-up: scale not given: the % may be the effect or the level left
Conditions: not given

Compound	Activity
CC(N(C)C)C1(c2ccc3ccccc3c2)CCCCC1.Cl (single isomer, unassigned; form 2)	14%
CNC(C)C1(c2ccc(Cl)c(Cl)c2)CCCCC1.Cl (single isomer, unassigned; enantiomer 2)	13%

System: Mus musculus
Assay: Antidepressant activity in mouse assessed as reduction in immobility duration pretreated 30 mins before at 30 mg/kg, po by tail suspension test
Type: functional
Set-up: scale not given: the % may be the effect or the level left
Conditions: not given

Compound	Activity
CC(N(C)C)C1(c2ccc3ccccc3c2)CCCCC1.Cl (single isomer, unassigned; form 2)	30%
CC(N(C)C)C1(c2ccc(Cl)c(Cl)c2)CCCCC1.Cl (stereo not given)	39%
CNC(C)C1(c2ccc(Cl)c(Cl)c2)CCCCC1.Cl (single isomer, unassigned; enantiomer 2)	3.3%

System: not listed separately
Assay: Half life in mouse liver microsomes by in vitro metabolic stability assay
Type: ADME, Microsome
Conditions: liver microsomes

Compound	half-life
CC(N)C1(c2cccs2)CCCCC1 (stereo not given)	137 min
CC(N)C1(c2ccc(-c3ccccc3)cc2)CCCCC1 (stereo not given)	40 min
CC(N(C)C)C1(c2ccc3ccccc3c2)CCCCC1 (racemic)	22 min
CC(N)C1(c2ccc3ccccc3c2)CCCCC1 (racemic)	16 min
CC(N)C1(c2ccc(OC(F)(F)F)cc2)CCCCC1 (stereo not given)	100 min
CNC(C)C1(c2ccc3ccccc3c2)CCCCC1 (stereo in doubt; 29)	12 min
CC(C)CC(N)C1(c2ccc(Cl)c(Cl)c2)CCCCC1 (racemic)	59 min
CC(N(C)C)C1(c2ccc(Cl)c(Cl)c2)CCCCC1 (racemic)	22 min
CNC(CC(C)C)C1(c2ccc(Cl)c(Cl)c2)CCCCC1 (racemic)	18 min

System: Plasma
Assay: Drug level in mouse plasma at 10 mg/kg, po
Type: functional, organism-based
Set-up: dose 10 mg/kg
Conditions: not given

Compound	Cp
CC(N(C)C)C1(c2ccc3ccccc3c2)CCCCC1 (single isomer, unassigned; form 2)	13 ng/mL
CC(N(C)C)C1(c2ccc(Cl)c(Cl)c2)CCCCC1 (stereo not given)	12 ng/mL
CNC(C)C1(c2ccc(Cl)c(Cl)c2)CCCCC1 (single isomer, unassigned; enantiomer 2)	44 ng/mL

System: Brain
Assay: Drug level in mouse brain at 30 mg/kg, po
Type: functional, organism-based
Set-up: dose 30 mg/kg
Conditions: not given

Compound	Drug uptake
CC(N(C)C)C1(c2ccc3ccccc3c2)CCCCC1 (single isomer, unassigned; form 2)	564 ng/g
CC(N(C)C)C1(c2ccc(Cl)c(Cl)c2)CCCCC1 (stereo not given)	845 ng/g
CNC(C)C1(c2ccc(Cl)c(Cl)c2)CCCCC1 (single isomer, unassigned; enantiomer 2)	7070 ng/g

System: Brain
Assay: Drug level in mouse brain at 3 mg/kg, po
Type: functional, organism-based
Set-up: dose 3 mg/kg
Conditions: not given

Compound	Drug uptake
CC(N(C)C)C1(c2ccc3ccccc3c2)CCCCC1 (single isomer, unassigned; form 2)	25 ng/g
CC(N(C)C)C1(c2ccc(Cl)c(Cl)c2)CCCCC1 (stereo not given)	19 ng/g
CNC(C)C1(c2ccc(Cl)c(Cl)c2)CCCCC1 (single isomer, unassigned; enantiomer 2)	145 ng/g

Target: Sodium-dependent serotonin transporter (Homo sapiens, UniProt P31645)
Type: cell-based, LLC-PK1
Conditions: not given

Chain of Sodium-dependent serotonin transporter (P31645 whole entry): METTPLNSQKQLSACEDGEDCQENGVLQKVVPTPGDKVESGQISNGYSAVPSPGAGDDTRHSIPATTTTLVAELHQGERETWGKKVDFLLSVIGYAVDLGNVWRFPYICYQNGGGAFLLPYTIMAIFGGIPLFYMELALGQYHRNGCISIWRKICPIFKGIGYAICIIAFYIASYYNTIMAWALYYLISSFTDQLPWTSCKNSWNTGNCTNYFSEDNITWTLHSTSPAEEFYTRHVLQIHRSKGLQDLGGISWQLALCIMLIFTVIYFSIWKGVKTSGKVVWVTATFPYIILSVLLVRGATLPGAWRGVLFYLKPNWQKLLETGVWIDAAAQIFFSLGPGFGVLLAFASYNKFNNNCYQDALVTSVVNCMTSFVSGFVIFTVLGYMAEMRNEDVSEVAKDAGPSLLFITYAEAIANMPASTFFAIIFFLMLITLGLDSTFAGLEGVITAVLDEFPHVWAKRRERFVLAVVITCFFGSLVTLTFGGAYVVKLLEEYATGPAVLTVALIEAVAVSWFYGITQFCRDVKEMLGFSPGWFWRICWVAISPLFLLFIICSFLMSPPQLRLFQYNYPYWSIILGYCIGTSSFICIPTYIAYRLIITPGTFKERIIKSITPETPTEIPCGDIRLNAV

Compound	IC50
CC(N)C1(c2ccc(OC(F)(F)F)cc2)CCCCC1 (stereo not given)	0.11 µM

Target: Cytochrome P450 2C9 (Homo sapiens, UniProt P11712)
Assay: Inhibition of CYP2C9
Type: ADME
Conditions: not given

Chain of Cytochrome P450 2C9 (P11712 whole entry): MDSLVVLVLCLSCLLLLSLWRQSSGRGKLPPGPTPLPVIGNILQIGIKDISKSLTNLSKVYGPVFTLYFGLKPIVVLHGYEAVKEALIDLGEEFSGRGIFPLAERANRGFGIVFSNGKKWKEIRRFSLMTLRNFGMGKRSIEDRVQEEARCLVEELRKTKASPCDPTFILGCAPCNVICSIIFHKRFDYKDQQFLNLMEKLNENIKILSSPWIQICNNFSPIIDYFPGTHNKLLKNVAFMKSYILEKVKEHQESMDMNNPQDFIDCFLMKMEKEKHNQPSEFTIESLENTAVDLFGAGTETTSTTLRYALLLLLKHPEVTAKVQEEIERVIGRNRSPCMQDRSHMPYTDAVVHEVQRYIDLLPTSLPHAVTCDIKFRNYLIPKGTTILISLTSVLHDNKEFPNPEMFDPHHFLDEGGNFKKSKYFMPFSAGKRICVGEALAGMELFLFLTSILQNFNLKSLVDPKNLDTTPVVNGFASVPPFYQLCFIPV

Compound	IC50
CC(N(C)C)C1(c2ccc3ccccc3c2)CCCCC1.Cl (single isomer, unassigned; form 2)	> 5 µM
CC(N(C)C)C1(c2ccc(Cl)c(Cl)c2)CCCCC1.Cl (stereo not given)	> 25 µM

System: Mus musculus
Assay: Antidepressant activity in mouse assessed as reduction in immobility duration pretreated 30 mins before at 100 mg/kg, po by tail suspension test
Type: functional
Set-up: scale not given: the % may be the effect or the level left
Conditions: not given

Compound	Activity
CC(N(C)C)C1(c2ccc3ccccc3c2)CCCCC1.Cl (single isomer, unassigned; form 2)	37%
CC(N(C)C)C1(c2ccc(Cl)c(Cl)c2)CCCCC1.Cl (stereo not given)	27%
CNC(C)C1(c2ccc(Cl)c(Cl)c2)CCCCC1.Cl (single isomer, unassigned; enantiomer 2)	25%

System: not listed separately
Assay: Inhibition of CYP1A
Type: ADME
Conditions: not given

Compound	IC50
CC(N(C)C)C1(c2ccc3ccccc3c2)CCCCC1.Cl (single isomer, unassigned; form 2)	> 25 µM
CC(N(C)C)C1(c2ccc(Cl)c(Cl)c2)CCCCC1.Cl (stereo not given)	> 25 µM
CNC(C)C1(c2ccc(Cl)c(Cl)c2)CCCCC1.Cl (single isomer, unassigned; enantiomer 2)	> 25 µM

System: Brain
Assay: Drug level in mouse brain at 10 mg/kg, po
Type: functional, organism-based
Set-up: dose 10 mg/kg
Conditions: not given

Compound	Drug uptake
CC(N(C)C)C1(c2ccc3ccccc3c2)CCCCC1 (single isomer, unassigned; form 2)	130 ng/g
CC(N(C)C)C1(c2ccc(Cl)c(Cl)c2)CCCCC1 (stereo not given)	114 ng/g
CNC(C)C1(c2ccc(Cl)c(Cl)c2)CCCCC1 (single isomer, unassigned; enantiomer 2)	782 ng/g

System: not listed separately
Assay: Half life in human liver microsomes by in vitro metabolic stability assay
Type: ADME, Microsome
Conditions: liver microsomes

Compound	half-life
CC(N)C1(c2cccs2)CCCCC1 (stereo not given)	152 min
CC(N)C1(c2ccc(-c3ccccc3)cc2)CCCCC1 (stereo not given)	248 min
CC(N(C)C)C1(c2ccc3ccccc3c2)CCCCC1 (racemic)	33 min
CC(N)C1(c2ccc3ccccc3c2)CCCCC1 (racemic)	140 min
CC(N)C1(c2ccc(OC(F)(F)F)cc2)CCCCC1 (stereo not given)	> 300 min
CNC(C)C1(c2ccc3ccccc3c2)CCCCC1 (stereo in doubt; 29)	90 min
CC(C)CC(N)C1(c2ccc(Cl)c(Cl)c2)CCCCC1 (racemic)	83 min
CC(N(C)C)C1(c2ccc(Cl)c(Cl)c2)CCCCC1 (racemic)	23 min
CNC(CC(C)C)C1(c2ccc(Cl)c(Cl)c2)CCCCC1 (racemic)	23 min

System: Plasma
Assay: Drug level in mouse plasma at 3 mg/kg, po
Type: functional, organism-based
Set-up: dose 3 mg/kg
Conditions: not given

Compound	Cp
CC(N(C)C)C1(c2ccc3ccccc3c2)CCCCC1 (single isomer, unassigned; form 2)	2 ng/mL
CC(N(C)C)C1(c2ccc(Cl)c(Cl)c2)CCCCC1 (stereo not given)	2 ng/mL
CNC(C)C1(c2ccc(Cl)c(Cl)c2)CCCCC1 (single isomer, unassigned; enantiomer 2)	9 ng/mL
